Assays:
P388/CPT45 cells = experiment: Cytotoxicity in camptothecin-resistant P388/CPT45 cells relative to parental P388 (selectivity index R/S); assay type: cell-based, murine; settings: IC50 P388/CPT45 cells divided by IC50 parental P388 cells
Description: The present invention includes fluoro sugar and other sugar derivatives of indolopyrrolocarbazoles of formula (I), as defined above. […] Most importantly, the instant invention describes topo I active compounds, related to compounds disclosed in WO 98/07433 and co-pending U.S. application, Ser. No. 08/914566 (both herein incorporated by reference), which display a surprising and unexpected selectivity index when evaluated for cytotoxicity in certain cell lines which express normal levels of topo I required for cell proliferation, compared with cell lines that are deficient in or underexpress topo I. Said “selectivity index” (R/S) was generated by dividing the cytotoxic IC50 of a particular compound against a camptothecin-resistant murine leukemia cell line, P388/CPT45, by the IC50 generated when using the parent P388 cell line. […] A level of selectivity was judged to be advantageous and beneficial in, for example, modulating potential undesirable side effects and/or toxicity. The compounds of the present invention were selected from compounds generically disclosed in WO 98/07433 and co-pending U.S. patent application, Ser. No. 08/914566, on the basis of an unexpected and unpredictable selectivity index (see Table I and II). […] Simple changes in the substitution of the sugar portion or the indolopyrrolocarbazole portion of the present invention will change the selectivity. This change in selectivity is not predictable by one skilled in the art.
(§1) Similarly, P338 murine leukemia cells were maintained in RPMI 1640 supplemented with 20% fetal bovine serum and 10 μM 2-mercaptoethanol. A camptothecin resistant subline, P388/CPT45, was selected for resistance to camptothecin and is over 1000-fold resistant to this compound (Woessner, et al. Oncol. Res. 1992, 4, 481-488).
(§2) In vitro cytotoxicity was assessed in tissue culture cells by MTS (3-(4,5-dimethylthiazol-2-yl)-5-(3-carboxymethoxyphenyl)-2-(4-sulphenyl)-2H-tetrazolium, inner salt) assay (Riss and Moravec, Mol. Biol. Cell 1992, 3 (Suppl.), 184a). Cells were plated at 8,000 cell/well in 96 well microtiter plates and 24 hours later serial dilutions of the test compounds were made and added to the cells. The cells were incubated at 37° C. for 72 hours, at which time the tetrazolium dye, MTS at 333 μg/ml (final concentration), in combination with the electron coupling agent phenazine methosulfate at 25 μM (final concentration) was added. A dehydrogenase enzyme in live cells reduces the MTS to a form that absorbs light at 492 nm which can be quantitated spectrophotometrically. The greater the absorbance the greater the number of live cells. The results are expressed as an IC50, which is the drug concentration required to inhibit cell proliferation (i.e., absorbance at 492 nm) to 50% of that of untreated control cells.
The selectivity index (R/S) is defined as the ratio obtained by dividing the IC50 value obtained using P388/CPT45 cells by that obtained using parental P388 cells. The R/S ratios used to determine the relative topo I selectivity of selected compounds of this invention are shown below in Table I.

[1] = test system: P388 murine leukemia cells; experiment: In vitro cell-based cytotoxicity, parental P388 cells; settings: Mus musculus, 72 h, median cytotoxic concentration, 3 days continuous exposure
Procedure: The proliferation inhibition activity against the murine P388 cell line was measured as follows. Evaluation of a soluble tetrazolium/formazan assay for cell growth and drug sensitivity in culture, using human and other tumor cell lines, was done according to the procedure described in Cancer Res. 1988, 48, 4827-4833. Cells were plated at 4000 cells/well in 96 well microtiter plates and 24 h later drugs were added and serially diluted. The cells were incubated at 37° C. for 72 h, at which time a tetrazolium dye, XTT, containing phenazine methosulfate was added. A dehydrogenase enzyme in live cells reduced the XTT to a form that absorbs light at 450 nm, which could be quantitated spectrophotometrically. The greater the absorbance the greater the number of live cells. The results are expressed as an IC50, which is the drug concentration required to inhibit cell proliferation (i.e., absorbance at 450 nm) to 50% of that of untreated control cells.
as §1, §2
The cytotoxic activity for certain compounds of the present invention, in both parental P388 and the camptothecin-resistant P388/CPT45 cell lines are shown below in Table I.

[2] = target: T1, purified human topoisomerase I (Homo sapiens, UniProt P11387); experiment: Topoisomerase I-mediated single strand DNA break induction (in vitro); assay type: biochemical; settings: median effect concentration for inducing single-strand breaks in the DNA substrate; read-out: Topo I EC50
T1 construct: purchased Topogen
T1 sequence (P11387 1-765): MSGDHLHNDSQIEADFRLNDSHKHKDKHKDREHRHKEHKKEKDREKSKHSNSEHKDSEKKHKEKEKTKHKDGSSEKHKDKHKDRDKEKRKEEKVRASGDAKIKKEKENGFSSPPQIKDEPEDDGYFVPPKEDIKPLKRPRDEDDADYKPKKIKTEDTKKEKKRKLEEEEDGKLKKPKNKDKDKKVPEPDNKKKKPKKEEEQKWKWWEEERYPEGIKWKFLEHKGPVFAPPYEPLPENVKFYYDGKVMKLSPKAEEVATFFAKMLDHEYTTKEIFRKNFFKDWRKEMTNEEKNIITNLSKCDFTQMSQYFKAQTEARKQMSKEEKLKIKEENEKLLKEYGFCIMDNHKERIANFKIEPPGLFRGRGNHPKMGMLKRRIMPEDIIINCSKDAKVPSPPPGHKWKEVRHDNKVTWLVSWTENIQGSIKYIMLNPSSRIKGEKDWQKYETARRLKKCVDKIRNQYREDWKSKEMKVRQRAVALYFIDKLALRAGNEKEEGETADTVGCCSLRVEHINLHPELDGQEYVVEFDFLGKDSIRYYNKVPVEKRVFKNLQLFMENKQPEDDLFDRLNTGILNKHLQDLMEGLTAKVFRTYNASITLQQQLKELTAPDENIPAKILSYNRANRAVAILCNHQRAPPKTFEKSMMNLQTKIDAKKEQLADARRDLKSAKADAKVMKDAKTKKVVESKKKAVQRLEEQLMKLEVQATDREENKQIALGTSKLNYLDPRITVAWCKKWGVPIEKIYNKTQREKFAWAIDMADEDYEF
Procedure: Topoisomerase I activity was measured as described below. The procedure for assaying compound-induced, topoisomerase I-mediated single strand breaks in DNA was essentially that described by Hsiang, et al., (J. Biol. Chem. 1985, 260, 14873-14878). Samples dissolved in 100% DMSO as either […] or 10 mg/ml solutions, unless otherwise stated, were diluted in Tris-EDTA buffer. Marine bacteriophage PM2 DNA (Boehringer Mannheim) was also diluted in Tris-EDTA buffer to a concentration of 0.02 μg/μl. Different dilutions of the compound being evaluated were mixed with diluted DNA and this mixture was added to […] (one unit of enzyme activity is defined as the amount capable of relaxing 100 ng of supercoiled DNA in approximately 30 minutes at 37° C.) aliquots of purified human topoisomerase I (Topogen) in 2X reaction buffer to start the reaction. The compound-DNA-enzyme mixture was incubated for 30 minutes at 37° C. before stopping the reaction with warm stop buffer containing sodium dodecyl sulfate and proteinase K (Sigma). These mixtures were allowed to incubate at 37° C. for another 10 minutes, at which time the mixtures were removed from the waterbath and extracted with a 24:1 mixture of chloroform/isoamyl alcohol. Following centrifugation, aliquots of the aqueous phases were placed in wells of a 0.9% agarose (SeaKem) gel in Tris-borate buffer containing 0.5 μg/ml of ethidium bromide and subjected to electrophoresis for 15 hours to separate the different topological isomers and nicked and broken DNAs. After destaining the gel in water, the ethidium bromide stained DNA reaction products were visualized by exposing the gel to UV irradiation. Negatives of the photographs of the irradiated gels were scanned with a densitometer and areas under the peaks were calculated in order to obtain percent single strand DNA break formation for each sample. A median effective concentration (EC50) was obtained for each compound by interpolation between points of the resulting dose-effect curve which defines the potency of the compound for its effect in inducing topoisomerase I-mediated single strand breaks in DNA. The topoisomerase I activities for certain compounds of the present invention are shown below in Table I.

EC50 [2] [nM] | Compound | Selectivity Index R/S (P388/CPT45 cells) | IC50 [1] [nM]
– | CC(C)CC(N)C(=O)O[C@H]1[C@H](n2c3cc(F)c(F)cc3c3c4c(c5c6cc(F)c(F)cc6[nH]c5c32)C(=O)NC4=O)O[C@H](CF)C[C@@H]1O (stereo in doubt) [Example 5, 12-[4,6-Dideoxy-6-fluoro-2-O-leucyl-β-D-glucopyranosyl]-2,3,9,10-tetrafluoro-12,13-dihydro-5H-indolo[2,3-a]pyrrolo[3,4-c]carbazole-5,7(6H)-dione] | 112.5 | 32
50 | O=C(O)CSC[C@H]1O[C@@H](n2c3ccc(F)cc3c3c4c(c5c6cc(F)ccc6[nH]c5c32)C(=O)NC4=O)[C@H](O)[C@@H](O)[C@@H]1O [Example 1] | 101.7 | 57
60 | O=C1NC(=O)c2c1c1c3cc(F)ccc3sc1c1c2c2cc(F)ccc2n1[C@@H]1O[C@H](CF)[C@@H](O)[C@H](O)[C@H]1O [Example 3] | 110.4 | 16
220 | O=C1NC(=O)c2c1c1c3cc(F)ccc3[nH]c1c1c2c2cc(F)ccc2n1[C@@H]1O[C@H](CF)[C@H](O)[C@H](O)[C@H]1O [Example 4, 12-[6-Deoxy-6-fluoro-β-D-galactopyranosyl]-3,9-difluoro-12,13-dihydro-5H-indolo[2,3-a]pyrrolo[3,4-c]carbazole-5,7(6H)-dione] | 110.9 | 12
70 | NC[C@H]1O[C@@H](n2c3ccc(F)cc3c3c4c(c5c6cc(F)ccc6sc5c32)C(=O)NC4=O)[C@H](O)[C@@H](O)[C@@H]1O [Example 6] | >116.3 | 68
10 | C[S+]([O-])C[C@H]1O[C@H](n2c3ccc(F)cc3c3c4c(c5c6cc(F)ccc6[nH]c5c32)C(=O)NC4=O)[C@H](O)[C@@H](O)[C@@H]1O (some centres unmarked) [Example 7] | >116.4 | 76
120 | O=C1NC(=O)c2c1c1c3cc(F)c(F)cc3sc1c1c2c2cc(F)c(F)cc2n1[C@@H]1O[C@H](CF)[C@@H](O)[C@H](O)[C@H]1O [Example 8, 13-[6-Dideoxy-6-fluoro-β-D-glucopyranosyl]-2,3,9,10-tetrafluoro-5H,13H-benzo[b]thienyl[2,3-a]pyrrolo[3,4-c]carbazole-5,7(6H)-dione] | 119.1 | 52
– | C[C@@H]1C[C@H](O)[C@@H](O)[C@H](n2c3ccc(F)cc3c3c4c(c5c6cc(F)ccc6[nH]c5c32)C(=O)NC4=O)O1 [Example 11, 12-[4,6-Dideoxy-β-D-glucopyranosyl]-3,9-difluoro-12,13-dihydro-5H-indolo[2,3-a]pyrrolo[3,4-c]carbazole-5,7(6H)-dione] | 125.3 | 16
– | C[C@]1(O)C[C@@H](CO)O[C@@H](n2c3cc(F)c(F)cc3c3c4c(c5c6cc(F)c(F)cc6[nH]c5c32)C(=O)NC4=O)[C@@H]1O [Example 18, 12-[4-Deoxy-3-methyl-β-D-glucopyranosyl]-2,3,9,10-tetrafluoro-12,13-dihydro-5H-indolo[2,3-a]pyrrolo[3,4-c]carbazole-5,7(6H)-dione] | 184.8 | 8
– | CNCC(=O)NC[C@H]1O[C@@H](n2c3ccc(F)cc3c3c4c(c5c6cc(F)ccc6sc5c32)C(=O)NC4=O)[C@H](O)[C@@H](O)[C@@H]1O [Example 23, 12-[6-Deoxy-6-[(N-methylglycinyl)amino]-β-D-glucopyranosyl]-3,9-difluoro-5H, 13H-benzo[b]thienyl[2,3-a]pyrrolo[3,4-c]carbazole-5,7(6H)-dione] | 306.8 | 25
– | C[C@@]1(O)C[C@@H](CO)O[C@@H](n2c3cc(F)c(F)cc3c3c4c(c5c6cc(F)c(F)cc6[nH]c5c32)C(=O)NC4=O)[C@@H]1O [Example 29, 12-[4-Deoxy-3-methyl-β-D-allopyranosyl]-2,3,9,10-tetrafluoro-12,13-dihydro-5H-indolo[2,3-a]pyrrolo[3,4-c]carbazole-5,7(6H)-dione] | 539.6 | 5
– | O=C1NCc2c1c1c3cc(F)ccc3[nH]c1c1c2c2cc(F)ccc2n1[C@@H]1O[C@H](CO)[C@@H](F)[C@H](O)[C@H]1O [Example 32, 12-[4-Deoxy-4-fluoro-β-D-glucopyranosyl]-3,9-difluoro-12,13-dihydro-5H-indolo[2,3-a]pyrrolo[3,4-c]carbazole-5(6H)-one] | 1051.8 | 5
– | O=C1NCc2c1c1c3cc(F)ccc3n([C@@H]3O[C@H](CO)[C@@H](F)[C@H](O)[C@H]3O)c1c1[nH]c3ccc(F)cc3c21 [Example 34, 12-[4-Deoxy-4-fluoro-β-D-glucopyranosyl)-3,9-difluoro-12,13-dihydro-5H-indolo[2,3-a]pyrrolo[3,4-c]carbazole-7(6H)-one] | 2859.5 | 2

Source: patent publication US20030083271A1, “Topoisomerase I selective cytotoxic sugar derivatives of indolopyrrolocarbazoles” (priority 2001, published 2003)
